# Experimental data as given in patent publication US20160046618A1, “Cyclopropyl Fused Thiazin-2-Amine Compounds as Beta-Secretase Inhibitors and Methods of Use” (AMGEN INC., priority 2014, published 2016).
# Like-named read-outs stand apart in the source and are kept apart here.
# What was measured:
# [1] = test system: Aβ40 in conditioned medium of cells stably expressing Amyloid Precursor Protein (APP); assay: In vitro BACE-1 cell-based assay (Aβ40 sandwich ELISA); conditions: read-out: IC50 IP (μM) BACE1 cell
# Summary of the method: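 Read-out: time-resolved fluorescence (Streptavidin-Europium) of Aβ40 captured by pAb40 and detected with biotinylated 6E10 from supernatants of APP-stable cells. Cells were exposed to compound for 24 h, 10-point dose response, top dose 100 μM or 10 μM, 0.1% DMSO. IC50 fitted to percent of control.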
# human recombinant BACE1 = human recombinant BACE1 (Homo sapiens (Human), UniProt P56817); assay: In vitro enzymatic BACE1 FRET assay; type: biochemical; conditions: read-out: IC50 IP (μM) BACE1 enzyme
# Summary of the method: (§1)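 Read-out: dequenched fluorescence, excitation 488 nm, emission 590 nm, after proteolysis of a quenched peptide spanning the BACE cleavage site. Substrate at 50 nM, 1 h incubation, termination by Tris addition to neutral pH.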
# Aβ 40 in rat brain = assay: In vivo inhibition of beta-secretase: Aβ40 reduction in rat brain; conditions: after 4 h
# Excerpt: (§2) In Vivo Inhibition of Beta-Secretase
# Several animal models, including mouse, rat, dog, and monkey, may be used to screen for inhibition of beta-secretase activity in vivo following administration of a test compound sample. Animals used in this invention can be wild type, transgenic, or gene knockout animals. […] One to twenty-four hours following the administration of compound, animals are sacrificed, and brains as well as cerebrospinal fluid (CSF) and plasma are removed for analysis of A-beta levels and drug or test compound concentrations (Dovey et al., 2001, Journal of Neurochemistry, 76,173-181) Beginning at time 0, animals are administered by oral gavage, or other means of delivery such as intravenous injection, an inhibitory test compound of up to 100 mg/kg in a standard, conventional formulation, such as 2% hydroxypropyl methylcellulose, 1% Tween80. A separate group of animals receive 2% hydroxypropyl methylcellulose, 1% Tween80 alone, containing no test compound, and serve as a vehicle-control group. At the end of the test period, animals are sacrificed and brain tissues, plasma or cerebrospinal fluid are collected. […] Homogenates are centrifuged at 355,000 g, 4° C. for 30 minutes. CSF or brain supernatants are then analyzed for the presence of A-beta peptide by specific sandwich ELISA assays based on ECL (Electrochemiluminescence) technology. For example, rat Abeta40 is measured using biotinylated-4G8 (Signet) as a capture antibody and Fab40 (an in-house antibody specific to the C-terminal of Abeta40) as a detection antibody.
# (§3) Actual vehicles used: Oral: 2% HPMC, 1% Tween80, pH 2.2
# Aβ 40 in rat CSF = assay: In vivo inhibition of beta-secretase: Aβ40 reduction in rat CSF; conditions: after 4 h
# Excerpt: as §2
# Several animal models, including mouse, rat, dog, and monkey, may be used to screen for inhibition of beta-secretase activity in vivo following administration of a test compound sample. Animals used in this invention can be wild type, transgenic, or gene knockout animals. For example, the Tg2576 mouse model, prepared and conducted as described in Hsiao et al., 1996, Science 274, 99-102, and other non-transgenic or gene knockout animals are useful to analyze in vivo inhibition of Amyloid beta peptide (Abeta) production in the presence of inhibitory test compounds. Generally, 2 to 18 month old Tg2576 mice, gene knockout mice or non-transgenic animals are administered test compounds formulated in vehicles, such as cyclodextran, phosphate buffers, hydroxypropyl methylcellulose or other suitable vehicles. One to twenty-four hours following the administration of compound, animals are sacrificed, and brains as well as cerebrospinal fluid (CSF) and plasma are removed for analysis of A-beta levels and drug or test compound concentrations (Dovey et al., 2001, Journal of Neurochemistry, 76,173-181) Beginning at time 0, animals are administered by oral gavage, or other means of delivery such as intravenous injection, an inhibitory test compound of up to 100 mg/kg in a standard, conventional formulation, such as 2% hydroxypropyl methylcellulose, 1% Tween80. A separate group of animals receive 2% hydroxypropyl methylcellulose, 1% Tween80 alone, containing no test compound, and serve as a vehicle-control group. At the end of the test period, animals are sacrificed and brain tissues, plasma or cerebrospinal fluid are collected. […] Homogenates are centrifuged at 355,000 g, 4° C. for 30 minutes. CSF or brain supernatants are then analyzed for the presence of A-beta peptide by specific sandwich ELISA assays based on ECL (Electrochemiluminescence) technology. For example, rat Abeta40 is measured using biotinylated-4G8 (Signet) as a capture antibody and Fab40 (an in-house antibody specific to the C-terminal of Abeta40) as a detection antibody. For example, 4 hours after administration of 30 mg/kg oral dose of the test compound in 2% hydroxypropyl methylcellulose, 1% Tween80 (pH2.2) to 200 g male Sprague Dawley rats, amyloid beta peptide levels are measured for reduction by X % and Y % in cerebrospinal fluid and brain, respectively, when compared to the levels measured in the vehicle-treated or control mice.
# as §3
# The compounds of the invention may be shown to reduce the formation and/or deposition of amyloid beta peptide in the cerebrospinal fluid (CSF) as well as in the brain of a mouse or rat at either 3 mpk, 10 mpk or 30 mpk (mpk=mg compound per kg weight of the animal) dosing concentrations after 4 h.
# Recombinant Cat D = Recombinant Cat D (Homo sapiens (Human), UniProt P07339); assay: In vitro enzymatic Cathepsin D (Cat D) FRET assay; type: biochemical; conditions: read-out: IC50 IP (μM) CatD
# Summary of the method: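 Cleavage of a 20 nM fluorophore/quencher peptide by CHO-expressed recombinant Cat D proceeded for one hour at pH 3.5 (0.05 M citrate, 5 mM CHAPS, 10% DMSO final). Tris addition neutralized the pH to end the reaction. Fluorescence was then measured (ex 500 nm/em 580 nm).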
# human recombinant BACE2 = human recombinant BACE2 (Homo sapiens (Human), UniProt Q9Y5Z0); assay: In vitro enzymatic BACE2 FRET assay; type: biochemical; conditions: read-out: IC50 IP (μM) BACE2 enzyme
# Summary of the method: as §1
# Sequence of Recombinant Cat D (P07339 65-412): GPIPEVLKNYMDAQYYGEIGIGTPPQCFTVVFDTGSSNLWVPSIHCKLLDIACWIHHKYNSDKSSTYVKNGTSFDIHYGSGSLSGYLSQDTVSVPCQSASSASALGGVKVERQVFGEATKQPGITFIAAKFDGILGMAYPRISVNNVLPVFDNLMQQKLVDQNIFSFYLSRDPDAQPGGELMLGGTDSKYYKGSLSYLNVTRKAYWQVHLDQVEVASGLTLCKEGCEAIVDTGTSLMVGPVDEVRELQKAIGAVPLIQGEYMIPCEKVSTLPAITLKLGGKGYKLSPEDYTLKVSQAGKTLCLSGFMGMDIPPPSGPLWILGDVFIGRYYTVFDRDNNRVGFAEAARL
# Sequence of human recombinant BACE1 (P56817 46-501): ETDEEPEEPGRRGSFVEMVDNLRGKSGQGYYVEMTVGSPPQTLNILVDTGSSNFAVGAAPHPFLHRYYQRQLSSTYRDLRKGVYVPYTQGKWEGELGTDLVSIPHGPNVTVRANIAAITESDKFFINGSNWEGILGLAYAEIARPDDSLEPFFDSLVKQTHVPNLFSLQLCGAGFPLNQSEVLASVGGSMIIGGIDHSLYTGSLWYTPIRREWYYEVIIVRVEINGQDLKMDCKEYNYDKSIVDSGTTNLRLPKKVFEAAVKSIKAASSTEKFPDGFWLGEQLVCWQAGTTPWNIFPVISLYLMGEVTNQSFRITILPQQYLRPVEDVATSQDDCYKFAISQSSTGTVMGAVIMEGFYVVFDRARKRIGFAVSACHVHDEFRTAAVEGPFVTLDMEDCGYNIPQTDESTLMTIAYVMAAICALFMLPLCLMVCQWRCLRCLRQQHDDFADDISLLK
# Sequence of human recombinant BACE2 (Q9Y5Z0 63-518): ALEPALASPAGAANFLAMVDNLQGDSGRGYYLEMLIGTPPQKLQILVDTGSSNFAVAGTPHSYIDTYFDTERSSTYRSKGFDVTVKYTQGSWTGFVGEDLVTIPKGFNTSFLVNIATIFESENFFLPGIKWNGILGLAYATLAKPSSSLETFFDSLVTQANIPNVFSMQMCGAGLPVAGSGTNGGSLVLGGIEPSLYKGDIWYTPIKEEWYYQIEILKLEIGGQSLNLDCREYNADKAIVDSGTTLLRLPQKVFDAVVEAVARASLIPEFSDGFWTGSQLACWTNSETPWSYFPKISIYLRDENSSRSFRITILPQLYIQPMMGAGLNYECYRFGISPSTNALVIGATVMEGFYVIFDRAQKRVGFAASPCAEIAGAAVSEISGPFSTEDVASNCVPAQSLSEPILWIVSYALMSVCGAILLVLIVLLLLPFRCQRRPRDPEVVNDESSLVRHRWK
SMILES,IC50 ([1]; BACE1 cell-based assay) [µM],IC50 (human recombinant BACE1; BACE1 FRET enzyme assay) [µM],IC50 (Recombinant Cat D; Cathepsin D FRET enzyme assay) [µM],IC50 (human recombinant BACE2; BACE2 FRET enzyme assay) [µM],IC50 [1] [µM],IC50 (human recombinant BACE1) [µM],IC50 (Recombinant Cat D) [µM],IC50 (human recombinant BACE2) [µM],% Aβ 40 reduction in rat brain at 10 mpk (Aβ 40 in rat brain) [%],% Aβ 40 reduction in rat CSF at 10 mpk (Aβ 40 in rat CSF) [%],% Aβ 40 reduction in rat brain (3 mpk) (Aβ 40 in rat brain; 3 mpk),% Aβ 40 reduction in rat CSF (3 mpk) (Aβ 40 in rat CSF; 3 mpk)
"NC1=N[C@](CF)(c2cc(Nc3nccc4cc(Cl)cnc34)ccc2F)[C@@H]2C[C@]2(CO)S1 [Example 45, ((1S,5S,6S)-3-amino-5-(5-((3-chloro-1,7-naphthyridin-8-yl)amino)-2-fluorophenyl)-5-(fluoromethyl)-2-thia-4-azabicyclo[4.1.0]hept-3-en-1-yl)methanol]",0.00427,0.00299,> 400,< 0.00203,–,–,–,–,0,17,–,–
"COC[C@]12C[C@H]1[C@@](C)(c1cc(Nc3ncnc4cc(C#N)cnc34)cc(F)c1F)N=C(N)S2 [Example 46, 4-((3-((1S,5S,6S)-3-amino-1-(methoxymethyl)-5-methyl-2-thia-4-azabicyclo[4.1.0]hept-3-en-5-yl)-4,5-difluorophenyl)amino)pyrido[3,2-d]pyrimidine-7-carbonitrile]",0.00352,0.00631,252,0.0301,–,–,–,–,67,73,–,–
"NC1=N[C@](CF)(c2cc(Nc3ncnc4cc(Cl)cnc34)ccc2F)[C@@H]2C[C@]2(CO)S1 [Example 49, ((1S,5S,6S)-3-amino-5-(5-((7-chloropyrido[3,2-d]pyrimidin-4-yl)amino)-2-fluorophenyl)-5-(fluoromethyl)-2-thia-4-azabicyclo[4.1.0]hept-3-en-1-yl)methanol]",0.0084,0.00631,1760,0.00749,–,–,–,–,14,24,–,–
"N#Cc1cnc2c(Nc3ccc(F)c([C@@]4(CF)N=C(N)S[C@H]5C[C@H]54)c3)ncnc2c1 [Example 51, 4-((3-((1S,5S,6S)-3-amino-5-(fluoromethyl)-2-thia-4-azabicyclo[4.1.0]hept-3-en-5-yl)-4-fluorophenyl)amino)pyrido[3,2-d]pyrimidine-7-carbonitrile]",0.00344,0.033,1350,0.0983,–,–,–,–,–,–,17 (3 mpk) %,23 (3 mpk) %

# The next lines start with results.
IC50 ([1]; BACE1 cell-based assay) [µM],IC50 (human recombinant BACE1; BACE1 FRET enzyme assay) [µM],IC50 (Recombinant Cat D; Cathepsin D FRET enzyme assay) [µM],IC50 (human recombinant BACE2; BACE2 FRET enzyme assay) [µM],IC50 [1] [µM],IC50 (human recombinant BACE1) [µM],IC50 (Recombinant Cat D) [µM],IC50 (human recombinant BACE2) [µM],SMILES,% Aβ 40 reduction in rat brain at 10 mpk (Aβ 40 in rat brain) [%],% Aβ 40 reduction in rat CSF at 10 mpk (Aβ 40 in rat CSF) [%],% Aβ 40 reduction in rat brain (3 mpk) (Aβ 40 in rat brain; 3 mpk),% Aβ 40 reduction in rat CSF (3 mpk) (Aβ 40 in rat CSF; 3 mpk)
0.00455,0.0105,> 400,0.23,–,–,–,–,"C#CCOc1cnc2c(Nc3ccc(F)c([C@@]4(CF)N=C(N)S[C@@]5(CO)C[C@H]54)c3)nccc2c1 [Example 52, ((1S,5S,6S)-3-amino-5-(fluoromethyl)-5-(2-fluoro-5-((3-(2-propyn-1-yloxy)-1,7-naphthyridin-8-yl)amino)phenyl)-2-thia-4-azabicyclo[4.1.0]hept-3-en-1-yl)methanol]",0,16,–,–
0.00196,0.00139,> 44.4,< 0.00203,–,–,–,–,"C[C@]1(c2cc(Nc3nccc4cc(C#N)cnc34)cc(F)c2F)N=C(N)S[C@@]2(CO)C[C@H]21 [Example 54, 8-((3-((1S,5S,6S)-3-amino-1-(hydroxymethyl)-5-methyl-2-thia-4-azabicyclo[4.1.0]hept-3-en-5-yl)-4,5-difluorophenyl)amino)-1,7-naphthyridine-3-carbonitrile]",19,18,–,–
0.00354,0.00043,> 133,0.0099,–,–,–,–,"C#CCOc1cnc2c(Nc3cc(F)c(F)c([C@@]4(C)N=C(N)S[C@@]5(CO)C[C@H]54)c3)nccc2n1 [Example 82, ((1S,5S,6S)-3-amino-5-(2,3-difluoro-5-((2-(2-propyn-1-yloxy)pyrido[3,4-b]pyrazin-5-yl)amino)phenyl)-5-methyl-2-thia-4-azabicyclo[4.1.0]hept-3-en-1-yl)methanol]",23,48,–,–
0.0216,0.00125,974,0.0228,–,–,–,–,"C#CCOc1cnc(C(=O)Nc2cc(F)c(F)c([C@@]3(CF)N=C(N)S[C@H]4C[C@H]43)c2)c(C)n1 [Example 84, N-(3-((1S,5S,6S)-3-amino-5-(fluoromethyl)-2-thia-4-azabicyclo[4.1.0]hept-3-en-5-yl)-4,5-difluorophenyl)-3-methyl-5-(2-propyn-1-yloxy)-2-pyrazinecarboxamide]",8,40,–,–
0.0138,0.00426,133,0.00837,–,–,–,–,"C[C@]1(c2cc(Nc3ncnc4cc(C#N)cnc34)cc(F)c2F)N=C(N)S[C@@]2(C(F)F)C[C@@H]12 [Example 95, 4-((3-((1S,5S,6S)-3-amino-1-(difluoromethyl)-5-methyl-2-thia-4-azabicyclo[4.1.0]hept-3-en-5-yl)-4,5-difluorophenyl)amino)pyrido[3,2-d]pyrimidine-7-carbonitrile]",60,69,–,–
–,–,–,–,0.00103,0.00115,196,0.0544,"C#CCOc1cnc(C(=O)Nc2cnc(OC)c([C@@]3(C)N=C(N)S[C@@]4(CF)C[C@H]43)c2)cn1 [Example 612, N-(5-((1S,5S,6S)-3-amino-1-(fluoromethyl)-5-methyl-2-thia-4-azabicyclo[4.1.0]hept-3-en-5-yl)-6-methoxy-3-pyridinyl)-5-(2-propyn-1-yloxy)-2-pyrazinecarboxamide]",82,84,–,–
–,–,–,–,0.00428,0.00114,1390,0.0384,"C#CCOc1cnc2c(Nc3cc(F)c(F)c([C@@]4(C)N=C(N)S[C@@]5(COC)C[C@H]54)c3)nccc2n1 [Example 627, N-(3-((1S,5S,6S)-3-amino-1-(methoxymethyl)-5-methyl-2-thia-4-azabicyclo[4.1.0]hept-3-en-5-yl)-4,5-difluorophenyl)-2-(2-propyn-1-yloxy)pyrido[3,4-b]pyrazin-5-amine]",50,59,–,–
